Where two headings read alike, the source gives them in different places.
Tests used:
[1] = target: T1, bradykinin 1 receptor (B1R) of the rat (Rattus norvegicus, UniProt P97583); assay: Functional investigation on the rat bradykinin 1 receptor (B1R), Ca2+ FLIPR assay in CHO K1 rB1R cells; assay type: cell-based; conditions: CHO-K1, B1R antagonism rat, test substance 10 μM, read-out: B1R Ant. r [10 μM] % Inhibition
T1 construct: expressed in transfected cells; host or cells: CHO K1 cells
T1 sequence (P97583 1-337): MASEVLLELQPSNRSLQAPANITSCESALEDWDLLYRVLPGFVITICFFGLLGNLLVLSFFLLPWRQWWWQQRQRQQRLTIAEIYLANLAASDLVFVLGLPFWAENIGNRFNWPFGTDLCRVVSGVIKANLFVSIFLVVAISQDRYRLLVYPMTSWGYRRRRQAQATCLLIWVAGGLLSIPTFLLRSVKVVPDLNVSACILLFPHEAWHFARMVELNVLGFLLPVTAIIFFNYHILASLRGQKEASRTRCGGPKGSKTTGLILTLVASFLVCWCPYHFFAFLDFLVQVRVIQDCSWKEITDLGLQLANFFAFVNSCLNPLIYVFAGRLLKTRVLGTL
In short: (§1)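 Stably transfected CHO K1 cells loaded with Fluo-4; FLIPR Ca2+ fluorescence peak (ex 488/em 540 nm). Compound added first (agonism vs Lys-Des-Arg9-bradykinin ≥50 nM human, Des-Arg9-bradykinin 10 μM rat), then after 10-20 min agonist at EC80; antagonism as % inhibition, IC50 from concentration series, n=2-3, N≥2.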

[2] = target: T2, human bradykinin 1 receptor (B1R) (Homo sapiens, UniProt P46663); assay: Functional investigation on the human bradykinin 1 receptor (B1R), Ca2+ FLIPR assay in CHO K1 hB1R cells; assay type: cell-based; conditions: CHO-K1, B1R antagonism human, test substance 10 μM, read-out: B1R Ant. h [10 μM] % Inhibition
T2 construct: expressed in transfected cells; host or cells: CHO K1 cells
T2 sequence (P46663 1-353): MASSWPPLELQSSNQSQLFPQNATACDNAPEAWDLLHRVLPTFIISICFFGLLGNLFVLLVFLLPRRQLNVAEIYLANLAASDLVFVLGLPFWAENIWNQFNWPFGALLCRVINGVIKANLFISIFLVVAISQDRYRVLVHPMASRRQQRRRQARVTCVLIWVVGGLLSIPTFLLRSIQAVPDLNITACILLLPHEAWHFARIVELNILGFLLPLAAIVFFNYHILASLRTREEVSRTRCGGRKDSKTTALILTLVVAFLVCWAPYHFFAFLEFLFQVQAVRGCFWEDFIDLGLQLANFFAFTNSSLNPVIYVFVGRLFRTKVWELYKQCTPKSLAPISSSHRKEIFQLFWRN
In short: as §1

[3] = target: T3, human μ opiate receptor (Homo sapiens, UniProt P35372); assay: Affinity for the human μ opiate receptor ([3H]-naloxone displacement, CHO-K1 receptor membrane preparation, SPA); assay type: binding; conditions: 1.5 h, Table 3, to be read in the same way as Table 1; test concentration 1 μM; read-out: μ
T3 construct: purchased PerkinElmer Life Sciences, Zaventem, Belgium RB-HOM; host or cells: CHO-K1 cells (membrane preparation)
Protocol: Binding data of the compounds on the μ opioid receptor and data on the inhibition of reuptake of serotonin (5-HT) are given in Table 1. The data for the μ receptor were measured at a test concentration of 1 μM, and those for the serotonin reuptake at 10 μM. The values are stated in % inhibition.
Investigation of the Activity of the Compounds of the Invention Method for Determining the Affinity for the Human μ Opiate Receptor
The receptor affinity for the human p opiate receptor is determined in a homogeneous set-up in microtitre plates. For this, dilution series of the substances to be tested are incubated with a receptor membrane preparation (15-40 μg of protein/250 μl of incubation batch) of CHO-K1 cells which express the human p opiate receptor (RB-HOM receptor membrane preparation from PerkinElmer Life Sciences, Zaventem, Belgium) in the presence of 1 nmol/l of the radioactive ligand [^3H]-naloxone (NET719, PerkinElmer Life Sciences, Zaventem, Belgium) and 1 mg of WGA-SPA-Beads (wheat germ agglutinin SPA beads from Amersham/Pharmacia, Freiburg, Germany) in a total volume of 250 μl for 90 minutes at room temperature. 50 mmol/l of Tris-HCl supplemented with 0.06% of bovine serum albumin is used as the incubation buffer. 100 μmol/l of naloxone are additionally added for determination of the non-specific binding. After the end of the ninety-minute incubation time, the microtitre plates are centrifuged for 20 minutes at 1,000 g and the radioactivity is measured in a β-counter (Microbeta-Trilux, PerkinElmer Wallac, Freiburg, Germany). The percentage displacement of the radioactive ligand from its binding to the human p opiate receptor is determined at a concentration of the test substances of 1 μmol/l and stated as the percentage inhibition of the specific binding. Starting from the percentage displacement by various concentrations of the test substances, IC50 inhibitory concentrations which cause a 50 percent displacement of the radioactive ligand are calculated. By conversion by means of the Cheng-Prusoff relationship, Ki values for the test substances are obtained.

[4] = % inhibition compared with the maximum achievable inhibition

T3 sequence (P35372 whole entry): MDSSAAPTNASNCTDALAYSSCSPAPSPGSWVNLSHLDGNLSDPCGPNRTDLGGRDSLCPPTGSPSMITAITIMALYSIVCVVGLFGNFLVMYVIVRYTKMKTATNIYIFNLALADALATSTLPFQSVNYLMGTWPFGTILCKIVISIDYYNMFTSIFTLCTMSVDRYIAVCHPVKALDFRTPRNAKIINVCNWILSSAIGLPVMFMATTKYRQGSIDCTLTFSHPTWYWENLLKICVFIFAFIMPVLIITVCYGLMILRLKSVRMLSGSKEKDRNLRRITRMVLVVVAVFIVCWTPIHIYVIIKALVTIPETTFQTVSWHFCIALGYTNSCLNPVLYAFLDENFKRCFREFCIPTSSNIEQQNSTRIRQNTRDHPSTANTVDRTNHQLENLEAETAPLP

SMILES | inhibition at 10 µM ([1]; Ca2+ FLIPR, CHO K1 rB1R cells) [%] | inhibition at 10 µM ([2]; Ca2+ FLIPR, CHO K1 hB1R cells) [%] | inhibition at 1 µM [3] [%] | inhibition at 10 µM [1, 4] [%] | inhibition at 10 µM [2, 4] [%]
O=C(COCC1CCCN(S(=O)(=O)c2c(Cl)cc(Cl)cc2Cl)C1)NC1CCC(C(c2ccccc2)N2CCCC2)CC1 (centres unmarked) [Example 633, N-(4-(phenyl(pyrrolidin-1-yl)methyl)cyclohexyl)-2-((1-(2,4,6-trichlorophenylsulfonyl)piperidin-3-yl)methoxy)acetamide] | 63 | 55 | 91 |  | 
CN(CCOCC(=O)NC1CCC(C(c2ccccc2)N2CCCC2)CC1)S(=O)(=O)c1c(Cl)cc(C(F)(F)F)cc1Cl (centres unmarked) [Example 630, 2-(2-(2,6-dichloro-N-methyl-4-(trifluoromethyl)phenylsulfonamido)ethoxy)-N-(4-(phenyl(pyrrolidin-1-yl)methyl)cyclohexyl)acetamide] | -11 | 50 | 72 |  | 
COc1cc(C)c(S(=O)(=O)N2CCCC(OCC(=O)NC3CCC(C(CCc4ccccc4)N4CCOCC4)CC3)C2)c(C)c1 (centres unmarked) [Example 674, 2-(1-(4-methoxy-2,6-dimethylphenylsulfonyl)piperidin-3-yloxy)-N-(4-(1-morpholino-3-phenylpropyl)cyclohexyl)acetamide] | 45 | 61 | 7 |  | 
CN1CCN(C(c2ccccc2)C2CCC(NC(=O)COCC3CCCCN3S(=O)(=O)c3c(Cl)cc(Cl)cc3Cl)CC2)CC1 (centres unmarked) [Example 739, N-(4-((4-methylpiperazin-1-yl)(phenyl)methyl)cyclohexyl)-2-((1-(2,4,6-trichlorophenylsulfonyl)piperidin-2-yl)methoxy)acetamide] | 87 | 104 | 62 |  | 
O=C(COCC1CCCN(S(=O)(=O)c2c(Cl)cc(Cl)cc2Cl)C1)NCC1CCC(C(CCc2ccccc2)N2CCOCC2)CC1 (centres unmarked) [Example 758, N-((4-(1-morpholino-3-phenylpropyl)cyclohexyl)methyl)-2-((1-(2,4,6-trichlorophenylsulfonyl)piperidin-3-yl)methoxy)acetamide] | 107 | 41 | 25 |  | 
O=C(COCC1CCCN1S(=O)(=O)c1c(Cl)cc(Cl)cc1Cl)NCC1CCC(C(c2ccccc2)N2CCCC2)CC1 (centres unmarked) [Example 651, N-((4-(phenyl(pyrrolidin-1-yl)methyl)cyclohexyl)methyl)-2-((1-(2,4,6-trichlorophenylsulfonyl)pyrrolidin-2-yl)methoxy)acetamide] | 105 | 103 | 83 |  | 
COc1cc(C)c(S(=O)(=O)N(C)CCOCC(=O)N2CCC(C(c3ccccc3)N3CCN(C)CC3)CC2)c(C)c1 (centres unmarked) [Example 798, 4-methoxy-N,2,6-trimethyl-N-(2-(2-(4-((4-methylpiperazin-1-yl)(phenyl)methyl)piperidin-1-yl)-2-oxoethoxy)ethyl)benzenesulfonamide] |  |  | 19 | 100 | 110
CN(CCOCC(=O)NC1CCC(C(c2ccccc2)N2CCCC2)CC1)S(=O)(=O)c1ccc(Cl)cc1Cl (centres unmarked) [Example 627, 2-(2-(2,4-dichloro-N-methylphenylsulfonamido)ethoxy)-N-(4-(phenyl(pyrrolidin-1-yl)methyl)cyclohexyl)acetamide] | 35 | 75 | 69 |  | 
CN(CCOCC(=O)NC1CCC(C(CCc2ccccc2)N2CCOCC2)CC1)S(=O)(=O)c1c(Cl)cc(C(F)(F)F)cc1Cl (centres unmarked) [Example 670, 2-(2-(2,6-dichloro-N-methyl-4-(trifluoromethyl)phenylsulfonamido)ethoxy)-N-(4-(1-morpholino-3-phenylpropyl)cyclohexyl)acetamide] | 58 | 12 | 7 |  | 
CN(CCOCC(=O)NC1CCC(C(CCc2ccccc2)N2CCOCC2)CC1)S(=O)(=O)c1c(Cl)cc(Cl)cc1Cl (centres unmarked) [Example 636, N-(4-(1-morpholino-3-phenylpropyl)cyclohexyl)-2-(2-(2,4,6-trichloro-N-methylphenylsulfonamido)ethoxy)acetamide] | 16 | 41 | 8 |  | 
CN(C)C(CCc1ccccc1)C1CCC(NC(=O)CCNC(=O)c2nc(-c3ccc(Cl)cc3Cl)no2)CC1 (centres unmarked) [Example 788, 3-(2,4-dichloro-phenyl)-[1,2,4]oxadiazole-5-carboxylic acid {2-[4-(1-dimethylamino-3-phenyl-propyl)-cyclohexylcarbamoyl]-ethyl}-amide] | 11 | 90 |  |  | 
CN(C)C(c1ccccc1)C1CCC(NC(=O)CCNC(=O)c2nc(-c3ccccn3)no2)CC1 (centres unmarked) [Example 771, 3-pyridin-2-yl-[1,2,4]oxadiazole-5-carboxylic acid {2-[4-(dimethylamino-phenyl-methyl)-cyclohexylcarbamoyl]-ethyl}-amide] | 8 | -16 |  |  | 
CN(C)C(c1ccccc1)C1CCC(NC(=O)CNC(=O)c2nc(-c3ccc(C(C)(C)C)cc3)no2)CC1 (centres unmarked) [Example 766, 3-(4-tert-butyl-phenyl)-[1,2,4]oxadiazole-5-carboxylic acid {[4-(dimethylamino-phenyl-methyl)-cyclohexylcarbamoyl]-methyl}-amide] | -9 | 6 |  |  | 
CN(C)C(CCc1ccccc1)C1CCC(NC(=O)CNC(=O)c2nc(-c3ccc4c(c3)OCO4)no2)CC1 (centres unmarked) [Example 783, 3-benzo[1,3]dioxol-5-yl-[1,2,4]oxadiazole-5-carboxylic acid {[4-(1-dimethylamino-3-phenyl-propyl)-cyclohexylcarbamoyl]-methyl}-amide] | -28 | 45 |  |  | 
CN(C)C(c1ccccc1)C1CCC(NC(=O)CNC(=O)c2nc(CS(=O)(=O)c3ccccc3)no2)CC1 (centres unmarked) [Example 769, 3-benzenesulfonylmethyl-[1,2,4]oxadiazole-5-carboxylic acid {[4-(dimethylamino-phenyl-methyl)-cyclohexylcarbamoyl]-methyl}-amide] | 39 | 15 |  |  | 
Cc1cc(Cl)cc(Cl)c1-c1noc(C(=O)NCC(=O)NC2CCC(C(c3ccccc3)N(C)C)CC2)n1 (centres unmarked) [Example 762, 3-(2,4-dichloro-6-methyl-phenyl)-[1,2,4]oxadiazole-5-carboxylic acid {[4-(dimethylamino-phenyl-methyl)-cyclohexylcarbamoyl]-methyl}-amide] | 25 | 73 |  |  | 
CN(C)C(c1ccccc1)C1CCC(NC(=O)CNC(=O)c2nc(-c3c(Cl)cccc3Cl)no2)CC1 (centres unmarked) [Example 770, 3-(2,6-dichloro-phenyl)-[1,2,4]oxadiazole-5-carboxylic acid {[4-(dimethylamino-phenyl-methyl)-cyclohexylcarbamoyl]-methyl}-amide] | 16 | 53 |  |  | 
